# Experiments:
# [1] = in vivo
# [2] = tested on: rabies; format: in vivo; conditions: healthy adult cats; once daily oral supplement at Table 13 levels
# [3] = Plasma vitamin C in dogs after dietary vitamin C; format: in vivo
# Protocol: Samples are prepared under subdued lighting at all times.
# A preferred minimal dose of vitamin C to achieve an increase in plasma in cats is 20 mg/400 kcal. A preferred minimal dose of vitamin C tested to achieve an increase in plasma in dogs was 27 mg/400 kcal.
# [4] = cats; oral α-tocopherol acetate supplements
# [5] = dog, in vivo
# [6] = Plasma α-tocopherol response to supplementation in healthy dogs (Example 10); format: in vivo
# Source text: Vitamin E is the collective name for 8 naturally occurring molecules, 4 tocopherols and 4 tocotrienols. The biological activity of the various forms roughly correlates with their antioxidant activities with the order of relative peroxyl scavenging reactivities of α>β>γ>δ-tocopherol. […] The minimum requirement for vitamin E in adult dogs has been established as 2.5 IU α-tocopherol/400 kcal diet (Nutrient Requirements of Dogs (1985) National Research Council (U.S.) National Academy Press Washington D.C. ISBN:0-309-03496-5). Prepared petfoods typically contain up to 10 times this amount but across the normal ranges of vitamin E in petfoods, plasma concentrations tend to be constant. In a study to evaluate the impact of supplementary vitamin E on the plasma response, 6 adult dogs, maintained on a nutritionally complete (see diet reference section) canned dog food (vitamin E content 8.2 mg/400 kcal (8.21U/400 kcal), were offered a supplement equivalent to 100 IU vitamin E/day for 6 weeks. A control group of 6 dogs was maintained under the same conditions but received no dietary supplement. Plasma α-tocopherol was monitored during, and for 4 weeks following, the supplementation period.
structure (smiles),measurement,setting,value
"O=C1O[C@H]([C@@H](O)CO)C(O)=C1O [Vitamin C, L-ascorbic acid]",plasma vitamin C levels versus baseline within 7 days,[1],significantly increased
same,anti-rabies antibody response to vaccination versus unsupplemented controls,[2],greater
same,minimal dose of vitamin C tested to achieve an increase in plasma,[3],27 mg/400 kcal
CC1=C(/C=C/C(C)=C/C=C/C(C)=C/C=C/C=C(C)/C=C/C=C(C)/C=C/C2=C(C)CCCC2(C)C)C(C)(C)CCC1 [beta-carotene],anti-rabies antibody response to vaccination versus unsupplemented controls,[2],greater
"CC(=O)Oc1c(C)c(C)c2c(c1C)CCC(C)(CCC[C@H](C)CCC[C@H](C)CCCC(C)C)O2 (stereo partly drawn) [Vitamin E, alpha-tocopherol acetate]",plasma vitamin E levels following oral supplementation,[4],significantly increased
same,anti-rabies antibody response to vaccination versus unsupplemented controls,[2],greater
Cc1c(C)c2c(c(C)c1O)CC[C@@](C)(CCC[C@H](C)CCC[C@H](C)CCCC(C)C)O2 [α-tocopherol],"individual plasma α-tocopherol levels, median",[5],21.1 mg/L
same,Plasma α-tocopherol,"[6]; Test group (100 IU vitamin E/day for 6 weeks), Baseline",15.9
same,Plasma α-tocopherol,"[6]; Test group (100 IU vitamin E/day), Day 28",32.6
same,Plasma α-tocopherol,"[6]; Test group (100 IU vitamin E/day), Day 42",35.4
same,Plasma α-tocopherol,"[6]; Test group, Day 70 (day 28 post-supplementation)",28.2 ± 6.87
CC(C)=CCC/C(C)=C/C=C/C(C)=C/C=C/C(C)=C/C=C/C=C(C)/C=C/C=C(C)/C=C/C=C(\C)CCC=C(C)C [lycopene],anti-rabies antibody response to vaccination versus unsupplemented controls,[2],particularly marked
"NCCS(=O)(=O)O [taurine, aminoethylsulfonic acid]",anti-rabies antibody response to vaccination versus unsupplemented controls,[2],greater
